Source: ChEMBL document CHEMBL1201862, “PubChem BioAssay data set” (2004)
The source made the active and inactive calls.

How the values were obtained:
BJ [1] = experiment: cells; format: functional, cell-based; conditions: Homo sapiens
[2] = biological target: T1, Replicative DNA helicase DnaB (Mycobacterium tuberculosis, UniProt P9WMR3); experiment: DnaB intein splicing inhibitors, dose response, biochemical, cell-free fluorescence (AID 449749); format: functional
T1 sequence (P9WMR3 whole entry): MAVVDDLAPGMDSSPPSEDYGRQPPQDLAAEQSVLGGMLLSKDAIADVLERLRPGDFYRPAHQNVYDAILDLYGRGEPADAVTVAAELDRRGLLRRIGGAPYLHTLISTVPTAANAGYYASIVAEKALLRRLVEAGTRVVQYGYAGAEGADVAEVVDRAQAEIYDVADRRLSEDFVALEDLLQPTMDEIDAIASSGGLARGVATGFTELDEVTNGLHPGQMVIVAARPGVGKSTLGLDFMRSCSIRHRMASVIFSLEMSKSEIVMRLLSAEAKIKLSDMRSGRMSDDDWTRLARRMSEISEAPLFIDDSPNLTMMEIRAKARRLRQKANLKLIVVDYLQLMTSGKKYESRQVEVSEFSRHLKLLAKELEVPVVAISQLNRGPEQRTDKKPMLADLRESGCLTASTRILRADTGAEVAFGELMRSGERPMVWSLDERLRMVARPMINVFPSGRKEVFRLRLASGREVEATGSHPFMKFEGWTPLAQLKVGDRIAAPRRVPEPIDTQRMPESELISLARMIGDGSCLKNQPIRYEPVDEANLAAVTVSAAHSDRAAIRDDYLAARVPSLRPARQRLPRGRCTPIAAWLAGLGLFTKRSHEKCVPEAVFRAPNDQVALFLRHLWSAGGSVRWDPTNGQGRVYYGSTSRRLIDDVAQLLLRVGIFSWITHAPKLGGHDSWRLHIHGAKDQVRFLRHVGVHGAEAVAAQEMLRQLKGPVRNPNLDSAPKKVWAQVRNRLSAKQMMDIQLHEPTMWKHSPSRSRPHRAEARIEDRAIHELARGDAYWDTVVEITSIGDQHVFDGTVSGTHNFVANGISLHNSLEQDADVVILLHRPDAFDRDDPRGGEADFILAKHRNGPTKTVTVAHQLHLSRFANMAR

[3] = DRD fibroblast viability loss – cell-based, non-viral oncogenic, luminescence, dose response (AID 1934); format: functional; conditions: Homo sapiens
Protein RecA = biological target: T2, Protein RecA (Mycobacterium tuberculosis, UniProt P9WHJ3); experiment: Fluorescence Cell-Free Homogeneous Dose Retest to Identify Inhibitors of RecA-Intein Splicing Activity. [Related pubchem assays (depositor defined):AID2097, AID2223, AID489010, AID492950]; format: functional
T2 sequence (P9WHJ3 whole entry): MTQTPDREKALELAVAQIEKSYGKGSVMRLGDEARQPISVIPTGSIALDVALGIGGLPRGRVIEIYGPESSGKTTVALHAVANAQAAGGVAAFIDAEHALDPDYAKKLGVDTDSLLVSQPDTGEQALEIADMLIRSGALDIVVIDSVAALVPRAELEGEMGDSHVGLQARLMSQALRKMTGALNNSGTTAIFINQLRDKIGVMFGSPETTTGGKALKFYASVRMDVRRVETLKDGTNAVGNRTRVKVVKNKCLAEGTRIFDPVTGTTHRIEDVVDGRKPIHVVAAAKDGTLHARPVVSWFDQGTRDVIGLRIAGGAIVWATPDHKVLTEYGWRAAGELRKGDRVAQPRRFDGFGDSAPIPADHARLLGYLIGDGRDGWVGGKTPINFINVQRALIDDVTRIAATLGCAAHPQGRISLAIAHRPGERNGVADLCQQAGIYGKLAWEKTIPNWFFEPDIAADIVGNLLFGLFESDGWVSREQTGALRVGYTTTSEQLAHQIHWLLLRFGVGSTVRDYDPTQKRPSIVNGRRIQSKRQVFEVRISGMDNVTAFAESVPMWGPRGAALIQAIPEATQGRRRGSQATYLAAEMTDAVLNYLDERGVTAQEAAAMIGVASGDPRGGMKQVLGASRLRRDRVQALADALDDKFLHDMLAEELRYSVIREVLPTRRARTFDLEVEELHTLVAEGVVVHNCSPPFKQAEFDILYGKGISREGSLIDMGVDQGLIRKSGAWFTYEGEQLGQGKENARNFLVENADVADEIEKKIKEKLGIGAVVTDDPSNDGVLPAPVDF

BJ [4] = experiment: BJ-TERT-LT-ST fibroblast viability loss – cell-based, RAS-independent, luminescence, dose response (AID 1935); format: functional; conditions: Homo sapiens;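 further: BJ fibroblasts immortalized with TERT plus LT and ST oncogenes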
BJ [5] = experiment: growth inhibition of engineered Ras-driven BJ cells – cell-based, alamar blue fluorescence, cherrypicked samples, dose response (AID 2631); format: functional; conditions: Homo sapiens;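 further: confirmatory dose-response assay in RAS-dependent BJ fibroblasts engineered with TERT, LT and ST, with cytotoxicity read by fluorescence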
BJ [6] = experiment: BJ-TERT fibroblast viability loss – cell-based, RAS-independent, luminescence, dose response (AID 1933); format: functional; conditions: Homo sapiens
[7] = biological target: T3, Probable nicotinate-nucleotide adenylyltransferase (Staphylococcus aureus (strain N315), UniProt P65502); format: functional, Staphylococcus aureus subsp. aureus N315;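 on IC50 Mean: confirmatory dose-response retesting of NadD inhibitor hits first found in an ultra-high-throughput screen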
[8] = biological target: T3, Probable nicotinate-nucleotide adenylyltransferase; format: functional, Staphylococcus aureus subsp. aureus N315; conditions: read-out: IC50_Mean
[9] = biological target: Protein disulfide-isomerase (Homo sapiens, UniProt P07237); experiment: inhibition of PDI-driven insulin aggregation – biochemical, turbidity, absorbance, cherry-picked samples, dose response (AID 602350); format: functional
[10] = reduction of Shn3 3'UTR-driven luciferase in osteoblasts – cell-based, Clone20 osteoblasts, firefly luciferase, cherry-picked, dose response (AID 624132); format: functional;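 further: firefly luciferase luminescence from reporter carrying the Shn3 3'UTR in osteoblasts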
[11] = biological target: Photoreceptor-specific nuclear receptor (Homo sapiens, UniProt Q9Y5X4); format: functional, cell-based;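 further: CHO-S cells with Gal4-NCOR and VP16-NR2E3 two-hybrid luciferase reporter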
Exodeoxyribonuclease V = biological target: T4, Exodeoxyribonuclease V (Escherichia coli (strain K12), UniProt P04993+P07648+P08394); experiment: RecBCD inhibition via phage-restricted bacterial growth – absorbance, V66 E. coli, mutant T4 phage, counter-screen for AddAB inhibitor project, dose response (AID 492957); format: functional, cell-based, Escherichia coli str. K-12 substr. MG1655
T4 sequence (P04993 whole entry): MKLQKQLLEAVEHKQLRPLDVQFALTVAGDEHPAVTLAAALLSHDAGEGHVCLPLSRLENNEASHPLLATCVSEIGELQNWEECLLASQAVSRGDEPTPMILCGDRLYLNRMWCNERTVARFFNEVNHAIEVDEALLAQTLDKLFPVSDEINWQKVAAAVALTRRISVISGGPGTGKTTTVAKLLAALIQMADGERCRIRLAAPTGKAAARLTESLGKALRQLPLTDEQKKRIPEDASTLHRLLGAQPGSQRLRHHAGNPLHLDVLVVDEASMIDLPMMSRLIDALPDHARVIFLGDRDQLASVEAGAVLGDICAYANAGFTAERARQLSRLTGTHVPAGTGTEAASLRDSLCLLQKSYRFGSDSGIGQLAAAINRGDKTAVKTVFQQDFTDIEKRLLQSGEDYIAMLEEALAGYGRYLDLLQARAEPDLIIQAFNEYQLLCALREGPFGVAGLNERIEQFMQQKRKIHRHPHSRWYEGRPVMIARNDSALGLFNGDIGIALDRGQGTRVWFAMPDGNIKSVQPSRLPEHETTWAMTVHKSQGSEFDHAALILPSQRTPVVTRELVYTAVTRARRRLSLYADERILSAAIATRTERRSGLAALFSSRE
T4 sequence (P07648 whole entry): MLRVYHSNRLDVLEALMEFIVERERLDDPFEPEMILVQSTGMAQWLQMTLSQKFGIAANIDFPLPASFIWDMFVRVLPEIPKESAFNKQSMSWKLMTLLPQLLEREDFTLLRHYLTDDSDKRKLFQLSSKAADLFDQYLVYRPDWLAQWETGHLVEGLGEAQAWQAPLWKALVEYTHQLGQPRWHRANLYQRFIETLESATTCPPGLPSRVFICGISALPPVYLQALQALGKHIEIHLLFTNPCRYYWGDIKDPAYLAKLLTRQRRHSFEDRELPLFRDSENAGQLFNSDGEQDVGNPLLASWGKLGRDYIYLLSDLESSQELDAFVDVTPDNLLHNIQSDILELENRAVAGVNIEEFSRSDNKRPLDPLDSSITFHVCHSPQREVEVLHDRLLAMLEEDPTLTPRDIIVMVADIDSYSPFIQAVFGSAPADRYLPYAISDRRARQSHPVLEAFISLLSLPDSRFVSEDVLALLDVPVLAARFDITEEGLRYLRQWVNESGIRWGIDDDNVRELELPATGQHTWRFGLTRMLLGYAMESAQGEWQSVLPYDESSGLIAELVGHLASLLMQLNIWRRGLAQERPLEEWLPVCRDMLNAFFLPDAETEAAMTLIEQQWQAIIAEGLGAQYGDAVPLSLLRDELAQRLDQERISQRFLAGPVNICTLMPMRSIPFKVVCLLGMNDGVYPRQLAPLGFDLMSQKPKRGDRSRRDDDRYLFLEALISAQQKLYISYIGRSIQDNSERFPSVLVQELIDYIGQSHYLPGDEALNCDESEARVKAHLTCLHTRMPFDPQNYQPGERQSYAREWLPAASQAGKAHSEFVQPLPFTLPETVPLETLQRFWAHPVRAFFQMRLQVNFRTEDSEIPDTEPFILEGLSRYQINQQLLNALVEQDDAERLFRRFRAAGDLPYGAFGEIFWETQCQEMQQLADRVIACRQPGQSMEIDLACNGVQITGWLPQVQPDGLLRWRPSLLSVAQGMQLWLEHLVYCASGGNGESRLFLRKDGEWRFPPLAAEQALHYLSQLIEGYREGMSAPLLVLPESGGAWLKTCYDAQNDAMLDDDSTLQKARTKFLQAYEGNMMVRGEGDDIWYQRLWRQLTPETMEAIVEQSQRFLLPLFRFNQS
T4 sequence (P08394 whole entry): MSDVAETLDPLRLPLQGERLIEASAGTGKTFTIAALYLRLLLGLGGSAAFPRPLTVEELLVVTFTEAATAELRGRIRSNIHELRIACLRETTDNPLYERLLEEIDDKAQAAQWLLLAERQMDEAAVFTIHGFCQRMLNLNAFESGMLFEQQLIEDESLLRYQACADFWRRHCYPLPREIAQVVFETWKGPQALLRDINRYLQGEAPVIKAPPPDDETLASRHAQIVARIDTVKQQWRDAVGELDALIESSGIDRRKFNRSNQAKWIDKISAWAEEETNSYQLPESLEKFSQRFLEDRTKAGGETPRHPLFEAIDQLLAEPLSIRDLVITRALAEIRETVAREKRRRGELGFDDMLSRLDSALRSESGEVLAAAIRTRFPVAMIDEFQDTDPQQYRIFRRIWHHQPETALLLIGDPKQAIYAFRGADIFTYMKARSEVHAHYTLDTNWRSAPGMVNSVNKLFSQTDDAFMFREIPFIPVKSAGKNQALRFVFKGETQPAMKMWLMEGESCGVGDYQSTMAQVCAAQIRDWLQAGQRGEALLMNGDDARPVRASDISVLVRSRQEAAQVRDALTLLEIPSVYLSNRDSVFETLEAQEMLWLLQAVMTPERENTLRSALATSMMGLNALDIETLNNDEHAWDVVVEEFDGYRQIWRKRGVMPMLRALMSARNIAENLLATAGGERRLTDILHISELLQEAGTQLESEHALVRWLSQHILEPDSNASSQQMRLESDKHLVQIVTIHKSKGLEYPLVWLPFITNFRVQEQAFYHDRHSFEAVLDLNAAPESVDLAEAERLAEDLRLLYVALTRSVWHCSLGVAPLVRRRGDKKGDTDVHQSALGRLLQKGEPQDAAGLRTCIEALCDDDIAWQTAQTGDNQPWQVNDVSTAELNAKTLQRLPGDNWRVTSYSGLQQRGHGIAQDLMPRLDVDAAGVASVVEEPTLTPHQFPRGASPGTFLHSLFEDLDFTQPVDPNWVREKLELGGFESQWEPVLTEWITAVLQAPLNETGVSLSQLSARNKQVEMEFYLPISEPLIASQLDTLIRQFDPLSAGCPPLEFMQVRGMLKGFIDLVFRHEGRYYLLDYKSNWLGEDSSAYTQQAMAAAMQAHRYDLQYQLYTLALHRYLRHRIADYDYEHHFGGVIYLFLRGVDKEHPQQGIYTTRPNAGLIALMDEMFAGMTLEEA

[12] = loss of viability in HepG2 cells – cell-based, CellTiter-Glo, cherry-picked, cytotoxicity control for Shn3 inhibitor project, dose response (AID 624134); format: functional
[13] = Counterscreen for AddAB inhibitors: absorbance-based bacterial cell-based high throughput dose response assay for inhibitors of bacterial viability. [Related pubchem assays (depositor defined):AID435030, AID449728, AID449731, AID488942, AID488955, AID488956]; format: functional

Protein disulfide-isomerase, sequence (P07237 whole entry): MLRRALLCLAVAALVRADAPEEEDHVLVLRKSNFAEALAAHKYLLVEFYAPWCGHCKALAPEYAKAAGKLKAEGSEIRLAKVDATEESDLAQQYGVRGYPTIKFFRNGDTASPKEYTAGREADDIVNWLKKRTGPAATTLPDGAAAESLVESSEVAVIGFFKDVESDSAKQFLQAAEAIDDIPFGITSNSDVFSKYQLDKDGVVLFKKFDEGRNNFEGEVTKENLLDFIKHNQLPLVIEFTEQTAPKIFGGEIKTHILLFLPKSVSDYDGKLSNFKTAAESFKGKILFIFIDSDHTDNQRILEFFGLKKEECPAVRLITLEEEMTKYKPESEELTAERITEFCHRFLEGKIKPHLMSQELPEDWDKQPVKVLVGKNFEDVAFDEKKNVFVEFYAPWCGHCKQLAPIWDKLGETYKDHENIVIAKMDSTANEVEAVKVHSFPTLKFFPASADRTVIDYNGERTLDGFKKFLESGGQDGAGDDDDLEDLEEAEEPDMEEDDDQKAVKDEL
T3 sequence (P65502 whole entry): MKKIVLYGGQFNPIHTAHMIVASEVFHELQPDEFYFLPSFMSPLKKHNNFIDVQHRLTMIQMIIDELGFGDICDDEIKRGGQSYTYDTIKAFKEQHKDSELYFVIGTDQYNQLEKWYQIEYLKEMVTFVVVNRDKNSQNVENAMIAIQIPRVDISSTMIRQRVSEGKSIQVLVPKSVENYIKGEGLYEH
Photoreceptor-specific nuclear receptor, sequence (Q9Y5X4 whole entry, the tested form may be a part): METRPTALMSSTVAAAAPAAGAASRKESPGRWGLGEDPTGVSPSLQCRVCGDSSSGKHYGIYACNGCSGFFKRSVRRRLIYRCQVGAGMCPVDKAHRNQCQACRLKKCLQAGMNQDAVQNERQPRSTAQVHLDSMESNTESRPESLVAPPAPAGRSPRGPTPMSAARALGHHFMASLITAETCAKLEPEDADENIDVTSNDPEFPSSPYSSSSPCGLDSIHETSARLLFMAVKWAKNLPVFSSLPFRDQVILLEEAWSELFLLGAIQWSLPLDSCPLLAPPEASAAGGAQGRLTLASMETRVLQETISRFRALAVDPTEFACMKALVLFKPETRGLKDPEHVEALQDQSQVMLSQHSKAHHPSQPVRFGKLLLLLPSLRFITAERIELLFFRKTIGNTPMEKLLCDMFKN

In the case of `COc1cccc(/C=C2\SC(=S)N(CCCC(=O)N(CCO)c3ccccc3)C2=O)c1`, the EC50 (BJ [1]) is reported as > 150 µM (not active), the AC50 [2] is reported as 41.7 µM (active) and the EC50 [3] is reported as 6.07 µM (inconclusive). The EC50 (Protein RecA) was 7.22 µM (active), the EC50 (BJ [4]) was > 75 µM (inconclusive) and the EC50 (BJ [5]) was > 66.7 µM (inactive). For the same molecule, the EC50 (BJ [6]) was 3.1 µM (inconclusive).
For `Cc1ccc(NCc2nnc(SCC(=O)c3ccccc3)n2Cc2ccco2)c(C)c1`, the IC50 [7] was 12.1 µM (active) and the IC50 [8] was 23 µM (active).
For `COc1ccc2c(CC(=O)OCC(=O)N(C)c3c(N)n(Cc4ccccc4)c(=O)[nH]c3=O)coc2c1`, the AC50 [9] was 5.45 µM (active) and the AC50 [10] was 21.2 µM (active).
In the case of `NC(=O)c1nn(-c2ccccc2)nc1NC(=O)CSc1nnnn1-c1ccc(Cl)cc1`, the IC50 [11] is reported as 2.27 µM (active).
For `c1ccc(-c2cc(CSc3nc4ccccc4[nH]3)on2)cc1`, the IC50 (Exodeoxyribonuclease V) was > 119 µM (inactive), the IC50 [11] was 4.61 µM (active) and the AC50 [12] was 58.3 µM (active). For the same molecule, the IC50 [13] was > 119 µM (inactive) and the AC50 [10] was 3.76 µM (active).
For `Cc1cc(O)cc2c1C1CCC3(C)C(=O)CCC3C1C=C2` (stereo not given), the AC50 [9] was 19.5 µM (active).
For `CCOC(=O)C1(CCOc2ccccc2)CCN(Cc2cc(OC)c(O)cc2Cl)CC1`, the AC50 [9] was 6.03 µM (active).
With `Cc1c(O)ccc2c(CN3CCN(C/C=C/c4ccccc4)CC3)cc(=O)oc12` the AC50 [9] was 19.5 µM (active).
